Laboratory results published in patent US12421260B2, “Neurokinin-1 antagonist” (SHANGHAI SHENGDI PHARMACEUTICAL CO., LTD, priority 2019, dated 2025).
Values after ≈ are worked out from the molar mass of the structure shown.

Columns and labels:
[1] = Water solubility (Test Example 1); format: physicochemical; conditions: for solubility: aqueous buffer, thermodynamic from solid
Procedure: 1.1. Preparation of Reagents
The 100 mL strength reagents were prepared as follows:
pH=3.0: phosphate buffer solution: 100 ml of 20 mmol/L NaH2PO4, 0.1M H3PO4, adjusting pH to 3.0.
pH=4.0: phosphate buffer solution: 100 ml of 20 mmol/L NaH2PO4, 0.1M H3PO4, adjusting pH to 4.0. […]
An appropriate amount of test compound was accurately weighed. The solution was added at a small amount each time for several times and stirred until the compound was dissolved, and the content of the compound in the solution was determined.

[2] = Chemical stability of the compounds (Test Example 1); format: physicochemical; conditions: purity loss after placing for 7 days; 4° C. and room temperature
Procedure: 2.1 Test of Stability of the Compounds
About 1 mg of sample was weighed into a vial, then the vial was placed in a vacuum bag and the bag was vacuumized. Then the bag was put into a container containing color-changing silica gel and sealed. Two parallel samples were prepared. Enough samples were prepared according to the sampling time point and placed at 4° C. and room temperature respectively.

[3] = Plasma stability test (Test Example 3); format: in vitro ADME; conditions: human plasma; for plasma concentration of the compound of the examples / plasma concentration of rolapitant after metabolism of the compound of the examples: 37° C.; for stability and metabolism to rolapitant in plasma (in words): up to 180 min
Procedure: The compounds of Example 4, Example 6, Example 10 and Example 11.
Human fresh plasma was donated by volunteers with informed consent.
1) The test compounds in Table 3 were respectively prepared into 30 mM stock solutions with DMSO for later use.
2) The 30 mM stock solution was diluted with DMSO solution to solution I at a concentration of 1600 μM. Then the 1600 μM solution I was diluted with acetonitrile (ACN) to a working solution II at a concentration of 16 μM.
3) 7 time points of 0, 15, 30, 60, 90, 120 and 180 min were set in the experiment with two parallel samples for each time point. Two sample groups were set for each compound. 75 μL plasma and 5 μL of the above prepared working solution II with a concentration of 16 μM were added to each group. The reaction system was incubated at 37° C. until the preset time when the reaction was stopped by 300 μL of the ACN solution containing the internal standard. The reaction mixture was centrifuged at 3700 rpm for 10 min, and the supernatant was collected for analysis.
4) Preparation of the standard curve: the previously diluted 1600 μM solution I was diluted with acetonitrile to 1.5 μM/mL solution III as the standard curve for later use. The standard curve concentration was set to […]. After dilution of each concentration of the standard curve, 75 μL plasma was added to 5 μL of each concentration point at a final concentration of 0.02, 0.05, 0.1, 0.25, 0.75, 1.0 and 1.5 uM, respectively. 300 μL stop solution was then added to the samples quickly which was then centrifuged at 3700 rpm for 10 min, and the supernatant was collected for LC-MSMS analysis.

Structure (SMILES): C[C@@H](OC[C@@]1(c2ccccc2)CC[C@]2(CCC(=O)N2)CN1C(=O)OCCN1CCN(C)CC1)c1cc(C(F)(F)F)cc(C(F)(F)F)c1 [Example 4]
- solubility ([1]; phosphate buffer, PH = 3): 2080 µg/mL (≈ 3.1 mM)
- Chemical stability [2]: Good (purity reduced by <0.5% after placing for 7 days)
- plasma concentration of the compound of the examples ([3]; 0 min): 1160 nM
- plasma concentration of the compound of the examples ([3]; 15 min): 980 nM
- plasma concentration of the compound of the examples ([3]; 30 min): 990 nM
- plasma concentration of the compound of the examples ([3]; 60 min): 1000 nM
- plasma concentration of the compound of the examples ([3]; 90 min): 970 nM
- plasma concentration of the compound of the examples ([3]; 120 min): 810 nM
- plasma concentration of the compound of the examples ([3]; 180 min): 780 nM
- stability and metabolism to rolapitant in plasma (in words) [3]: relatively stable in plasma

Structure (SMILES): C[C@H](N)C(=O)OCOC(=O)N1C[C@@]2(CCC(=O)N2)CC[C@@]1(CO[C@H](C)c1cc(C(F)(F)F)cc(C(F)(F)F)c1)c1ccccc1 [Example 13]
- Chemical stability [2]: Moderate (purity reduced by 0.5%~2.0% after placing for 7 days)

Structure (SMILES): C[C@@H](OC[C@@]1(c2ccccc2)CC[C@]2(CCC(=O)N2)CN1C(=O)OCOC(=O)CN)c1cc(C(F)(F)F)cc(C(F)(F)F)c1 [Example 12]
- Chemical stability [2]: Poor (purity reduced by >2.0% after placing for 7 days)

Structure (SMILES): C[C@@H](OC[C@@]1(c2ccccc2)CC[C@]2(CCC(=O)N2)CN1C(=O)OCOC(=O)[C@@H](N)CCCCN)c1cc(C(F)(F)F)cc(C(F)(F)F)c1 [Example 17]
- Chemical stability [2]: Moderate (purity reduced by 0.5%~2.0% after placing for 7 days)

Structure (SMILES): CC(C)[C@@H](N)C(=O)OCOC(=O)N1C[C@@]2(CCC(=O)N2)CC[C@@]1(CO[C@H](C)c1cc(C(F)(F)F)cc(C(F)(F)F)c1)c1ccccc1.O=C(O)C(F)(F)F [Example 18]
- Water solubility ([1]; PH = 4): 2.62 mg/mL (PH = 4) mg/ml
- Chemical stability [2]: Good (purity reduced by <0.5% after placing for 7 days)

Structure (SMILES): CC(OC(=O)[C@@H](N)C(C)C)OC(=O)N1C[C@@]2(CCC(=O)N2)CC[C@@]1(CO[C@H](C)c1cc(C(F)(F)F)cc(C(F)(F)F)c1)c1ccccc1 (stereo partly shown) [Example 14]
- solubility ([1]; phosphate buffer, PH = 4): 4500 µg/mL (≈ 6.54 mM)
- Chemical stability [2]: Good (purity reduced by <0.5% after placing for 7 days)

Structure (SMILES): Cc1oc(=O)oc1CN1C(=O)CC[C@]12CC[C@@](CO[C@H](C)c1cc(C(F)(F)F)cc(C(F)(F)F)c1)(c1ccccc1)NC2 [Example 3]
- solubility ([1]; PH = 5): < 100 µg/mL
- Chemical stability [2]: Good (purity reduced by <0.5% after placing for 7 days)

Structure (SMILES): C[C@@H](OC[C@@]1(c2ccccc2)CC[C@]2(CCC(=O)N2COC(=O)N(C)C)CN1)c1cc(C(F)(F)F)cc(C(F)(F)F)c1 [Example 9]
- solubility ([1]; phosphate buffer, PH = 3): < 100 µg/mL
- Chemical stability [2]: Good (purity reduced by <0.5% after placing for 7 days)

Structure (SMILES): CC(C)[C@H](N)C(=O)OCCCOC(=O)N1C[C@@]2(CCC(=O)N2)CC[C@@]1(CO[C@H](C)c1cc(C(F)(F)F)cc(C(F)(F)F)c1)c1ccccc1.O=C(O)C(F)(F)F [Example 10]
- Water solubility ([1]; PH = 3): 1.86 mg/mL(PH = 3) mg/ml
- plasma concentration of rolapitant after metabolism of the compound of the examples ([3]; 0 min): 0 nM
- plasma concentration of the compound of the examples ([3]; 0 min): 1040 nM
- plasma concentration of rolapitant after metabolism of the compound of the examples ([3]; 15 min): 0 nM
- plasma concentration of the compound of the examples ([3]; 15 min): 920 nM
- plasma concentration of rolapitant after metabolism of the compound of the examples ([3]; 30 min): 0 nM
- plasma concentration of the compound of the examples ([3]; 30 min): 970 nM
- plasma concentration of rolapitant after metabolism of the compound of the examples ([3]; 60 min): 0 nM
- plasma concentration of the compound of the examples ([3]; 60 min): 960 nM
- plasma concentration of rolapitant after metabolism of the compound of the examples ([3]; 90 min): 0 nM
- plasma concentration of the compound of the examples ([3]; 90 min): 930 nM
- plasma concentration of rolapitant after metabolism of the compound of the examples ([3]; 120 min): 0 nM
- plasma concentration of the compound of the examples ([3]; 120 min): 950 nM
- plasma concentration of rolapitant after metabolism of the compound of the examples ([3]; 180 min): 0 nM
- plasma concentration of the compound of the examples ([3]; 180 min): 880 nM
- stability and metabolism to rolapitant in plasma (in words) [3]: relatively stable in plasma
